# Results taken from patent US9636335B2, “Heteroaryl compounds as 5-HT4 receptor ligands” (Suven Life Sciences Ltd, priority 2011, dated 2017).
# Structures can show the parent of a compound that is named as a salt.
# Tests used:
# [1] = target: recombinant human 5-HT4 receptor (Homo sapiens (Human), UniProt Q13639); experiment: Determination of EC50 values for 5-HT4 receptor (CHO cells, pCRE-Luc reporter); format: cell-based; settings: CHO cells expressing human 5-HT4 receptor, luciferase activity, 4 hours incubation
# Description: A stable CHO cell line expressing recombinant human 5-HT4 receptor and pCRE-Luc reporter system was used for cell-based assay. The assay offers a non-radioactive based approach to determine binding of a compound to GPCRs. In this specific assay, the level of intracellular cyclic AMP which is modulated by activation or inhibition of the receptor is measured. The recombinant cells harbor luciferase reporter gene under the control of cAMP response element.
# The above cells were grown in 96 well clear bottom white plates in Hams F12 medium containing 10% fetal bovine serum (FBS). Prior to the addition of compounds or standard agonist, cells were serum starved overnight. Increasing concentrations of test compounds were added in OptiMEM medium to the cells. The incubation was continued at 37° C. in CO2 incubator for 4 hours. Medium was removed and cells were washed with phosphate buffered saline. The cells were lysed and luciferase activity was measured in a Luminometer. Luminescence units were plotted against the compound concentrations using Graphpad software.
# [2] = Rodent pharmacokinetic study; format: in vivo, Male Wister rats; settings: plasma
# Description: Three to five animals were housed in each cage. […] Animals were fasted over night before oral dosing (p.o) and food pellets were allowed 2 hours post dosing, whereas intravenous dosing food and water were provided as ad libitum. Three rats were dosed with compounds of formula (I) (10 mg/kg) orally and intravenously (05 mg/kg).
# At each time point blood was collected through jugular vein and immediately replenish with an equivalent volume of normal saline from freely moving rats. Collected blood was transferred into a labeled eppendr off containing 10 μL of heparin as anticoagulant. Typically blood samples were collected as following time points: Pre dose, 0.08 (only i.v.), 0.25, 0.5, 1, 2, 4, 6, 8, and 24 hours post dose (n=3). Blood was centrifuged at 4000 rpm for 10 minutes. Plasma was prepared and stored frozen at −20° C. until analysis.
# Pharmacokinetic parameters Cmax, Tmax, AUCt, T1/2 and Bioavailability were calculated by non-compartmental model using standard non-compartmental model by using WinNonLin 5.0.1 or Phoenix WinNonlin 6.2 version Software package.
# Male Wister rats = experiment: Object recognition task model; format: in vivo; settings: p.o., rat
# Description: The cognition enhancing properties of compounds of this invention were estimated by using this model.
# Male Wister rats (230-280 grams) were used as experimental animals. Four animals were housed in each cage. […] Also the rats were habituated to individual arenas for 1 hour in the absence of any objects.
# One group of 12 rats received vehicle (1 mL/Kg) orally and another set of animals received compound of the formula (I) either orally or i.p., before one hour of the familiar (T1) and choice trial (T2).
# The experiment was carried out in a 50×50×50 cm open field made up of acrylic. In the familiarization phase, (T1), the rats were placed individually in the open field for 3 minutes, in which two identical objects (plastic bottles, 12.5 cm height×5.5 cm diameter) covered in yellow masking tape alone (a1 and a2) were positioned in two adjacent corners, 10 cms from the walls. After 24 hours of the (T1) trial for long-term memory test, the same rats were placed in the same arena as they were placed in T1 trial. Choice phase (T2) rats were allowed to explore the open field for 3 minutes in presence of one familiar object (a3) and one novel object (b) (Amber color glass bottle, 12 cm high and 5 cm in diameter). Familiar objects presented similar textures, colors and sizes. During the T1 and T2 trial, explorations of each object (defined as sniffing, licking, chewing or having moving vibrissae whilst directing the nose towards the object at a distance of less than 1 cm) were recorded separately by stopwatch. […] T1 is the total time spent exploring the familiar objects (a1+a2). T2 is the total time spent exploring the familiar object and novel object (a3+b).
# [3] = Rodent brain penetration study; settings: male, Wistar, rat, po, 10 mg/kg
# Description: Three animals were housed in each cage. Animals were given water and food ad libitum throughout the experiment, and maintained on a 12 hours light/dark cycle.
# Brain penetration was determined in discrete manner in rats. […] After acclimatization the rats were grouped according to the weight in each group, 3 animals were kept in individual cage and allowed free access to food and water. At each time point (0.50, 1, and 2 hours) n=3 animals were used.
# The compounds of formula (I) was suitably preformulated and administered orally at (free base equivalent) 10 mg/kg. Blood samples were removed via, cardiac puncture by using isoflurane anesthesia the animals were sacrificed to collect brain tissue. […] The concentrations of the NCE compound in plasma and Brain were determined using LC-MS/MS method.
# Extent of brain-plasma ratio was calculated (Cb/Cp).
# [4] = Wistar/Male rat, 5 mg/kg, intravenous (bolus)
# [5] = Wistar/Male rat, 10 mg/kg oral vs 5 mg/kg intravenous
# [6] = Wistar/Male rat, 10 mg/kg, oral (gavage)
# [7] = male, Wistar, rat, po, 10 mg/kg
# recombinant human 5-HT4 receptor, sequence (Q13639 whole entry): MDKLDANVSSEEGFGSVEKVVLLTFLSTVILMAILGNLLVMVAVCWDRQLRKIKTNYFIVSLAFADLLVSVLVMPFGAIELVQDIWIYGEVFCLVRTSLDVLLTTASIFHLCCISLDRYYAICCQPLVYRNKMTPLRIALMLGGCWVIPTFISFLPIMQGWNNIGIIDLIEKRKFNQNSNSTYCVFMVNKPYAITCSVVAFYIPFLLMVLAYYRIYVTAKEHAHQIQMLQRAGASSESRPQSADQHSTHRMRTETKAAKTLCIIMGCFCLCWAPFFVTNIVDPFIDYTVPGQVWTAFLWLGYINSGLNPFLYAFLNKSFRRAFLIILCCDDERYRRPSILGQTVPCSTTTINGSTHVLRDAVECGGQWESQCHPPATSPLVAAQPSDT
EC50 [1],"AUC(0-t) [2, 4]","Cmax [2, 4]","Tmax [2, 4]","half-life [2, 4]","bioavailability [2, 5]","AUC(0-t) [2, 6]","Cmax [2, 6]","Tmax [2, 6]","half-life [2, 6]",Structure (SMILES),"Exploration time mean ± S.E.M, Familiar object (Male Wister rats; 3 mg/kg)","Exploration time mean ± S.E.M, Novel object (Male Wister rats; 3 mg/kg)",Inference (Male Wister rats; 3 mg/kg),also measured
6.8 nM,2370 ± 90 ng·h/mL,1860 ± 115 ng/mL,4.8 min,133 ± 13.8 min,101 ± 1%,4814 ± 30 ng·h/mL,1760 ± 264 ng/mL,30 min,88.8 ± 10.8 min,"CCOC(=O)N1CCC(N2CCC(c3nnc(-c4cc(Cl)c(N)c5c4OCCC5)o3)CC2)CC1 [Example 19, 4-[5-(5-Amino-6-chloro-chroman-8-yl)-[1,3,4]oxadiazol-2-yl]-[1,4′]bipiperidinyl-1′-carboxylic acid ethyl ester]",,,,"Exploration time mean ± S.E.M, Familiar object (Male Wister rats; 10 mg/kg): 7.19 ± 0.65 s; Exploration time mean ± S.E.M, Novel object (Male Wister rats; 10 mg/kg): 13.21 ± 2.1 s; Inference (Male Wister rats; 10 mg/kg): Active"
,,,,,,,,,,"CC(C)n1nc(-c2nnc(C3CCN(C4CCC4)CC3)o2)c2ccccc21 [Example 37, 3-[5-(1-Cyclobutyl-piperidin-4-yl)-[1,3,4]oxadiazol-2-yl]-1-isopropyl-1H-indazole]",,,,Kp ([3]; in vivo): 5.68 ± 1.74
,,,,,,,,,,"CC(C)n1nc(-c2nnc(C3CCN(C4CCOCC4)CC3)o2)c2ccccc21 [Example 48, 1-Isopropyl-3-{5-[1-(tetrahydro-pyran-4-yl)-piperidin-4-yl]-[1,3,4]oxadiazol-2-yl}-1H-indazole oxalate salt]",,,,Kp ([3]; in vivo): 2.55 ± 0.32
15.6 nM,1320 ± 527 ng·h/mL,1280 ± 239 ng/mL,4.8 min,61.8 ± 8.4 min,72 ± 22%,1760 ± 89 ng·h/mL,918 ± 46 ng/mL,19.8 ± 8.4 min,60.6 ± 4.8 min,"COCCN1CCC(c2nnc(-c3cc(Cl)c(N)c4c3OCCC4)o2)CC1 [Example 8, 6-Chloro-8-{5-[1-(2-methoxy-ethyl)-piperidin-4-yl]-[1,3,4]oxadiazol-2-yl}-chroman-5-ylamine]",10.45 ± 1.162 s,17.59 ± 2.95 s,Active,Kp ([3]; brain homogenate and plasma): 0.56 ± 0.08
13.3 nM,,,,,,,,,,"Nc1c(Cl)cc(-c2nnc(C3CCN(C4CCC4)CC3)o2)c2c1OCCO2 [Example 16, 6-Chloro-8-[5-(1-cyclobutyl-piperidin-4-yl)-[1,3,4]oxadiazol-2-yl]-2,3-dihydro-benzo[1,4]dioxin-5-ylamine]",,,,"Exploration time mean ± S.E.M, Familiar object (Male Wister rats; 10 mg/kg): 8.03 ± 1.58 s; Exploration time mean ± S.E.M, Novel object (Male Wister rats; 10 mg/kg): 13.94 ± 1.76 s; Inference (Male Wister rats; 10 mg/kg): Active"
2.4 nM,836 ± 374 ng·h/mL,792 ± 111 ng/mL,4.8 min,82.8 ± 39.6 min,66 ± 21%,1210 ± 941 ng·h/mL,412 ± 177 ng/mL,40.2 ± 14.4 min,89.4 ± 38.4 min,"CC(C)CCN1CCC(c2nnc(-c3cc(Cl)c(N)c4c3OCCC4)o2)CC1 [Example 9, 6-Chloro-8-{5-[1-(3-methyl-butyl)-piperidin-4-yl]-[1,3,4]oxadiazol-2-yl}-chroman-5-ylamine]",11.21 ± 2.18 s,16.47 ± 1.18 s,Active,

Structure (SMILES),EC50 [1],"AUC(0-t) [2, 4]","Cmax [2, 4]","Tmax [2, 4]","half-life [2, 4]","bioavailability [2, 5]","AUC(0-t) [2, 6]","Cmax [2, 6]","Tmax [2, 6]","half-life [2, 6]","Exploration time mean ± S.E.M, Familiar object (Male Wister rats; 3 mg/kg)","Exploration time mean ± S.E.M, Novel object (Male Wister rats; 3 mg/kg)",Inference (Male Wister rats; 3 mg/kg),also measured
"Nc1c(Cl)cc(-c2nnc(C3CCN(C4CCOCC4)CC3)o2)c2c1CCCO2.O=C(O)C(=O)O [Example 25, 6-Chloro-8-{5-[1-(tetrahydro-pyran-4-yl)-piperidin-4-yl]-[1,3,4]oxadiazol-2-yl}-chroman-5-ylamine oxalate salt]",5.7 nM,,,,,,,,,,5.93 ± 0.87 s,14.70 ± 2.34 s,Active,
"Nc1c(Cl)cc(-c2nnc(CC3CCN(C4CCCC4)CC3)o2)c2c1CCCO2.O=C(O)C(=O)O [Example 21, 6-Chloro-8-[5-(1-cyclopentyl-piperidin-4-ylmethyl)-[1,3,4]oxadiazol-2-yl]-chroman-5-ylamine oxalate salt]",71.2 nM,,,,,,,,,,,,,"Kp ([3]; brain homogenate and plasma): 0.62 ± 0.05; AUC(0-t) ([2]; male, Wistar, rat, iv, 5 mg/kg): 876 ± 65 ng·h/mL; Cmax ([2]; male, Wistar, rat, iv, 5 mg/kg): 750 ± 14 ng/mL; Tmax ([2]; male, Wistar, rat, iv, 5 mg/kg): 4.8 min; half-life ([2]; male, Wistar, rat, iv, 5 mg/kg): 107 ± 25.8 min; AUC(0-t) [2, 7]: 1490 ± 72 ng·h/mL; Cmax [2, 7]: 553 ± 53 ng/mL; Tmax [2, 7]: 25.2 ± 7.2 min; bioavailability [2, 7]: 85 ± 4%; half-life [2, 7]: 94.2 ± 6.6 min"
